{"source": "patent US9006250B2", "about": "“4-amino-6-(heterocyclic)picolinates and 6-amino-2-(heterocyclic)pyrimidine-4-carboxylates and their use as herbicides” (Dow AgroSciences, LLC, priority 2013, dated 2015)", "assay_in_all_cases": "Postemergence herbicidal activity in direct seeded rice", "type_in_all_cases": "in vivo", "key": {"[1]": {"test_system": "ECHCG: barnyardgrass, Echinochloa crus-galli", "excerpt": "(§1) Seeds or nutlets of the desired test plant species were planted in a soil matrix prepared by mixing a loam soil (43 percent silt, 19 percent clay, and 38 percent sand, with a pH of about 8.1 and an organic matter content of about 1.5 percent) and river sand in an 80 to 20 ratio. The soil matrix was contained in plastic pots with a surface area of 139.7 cm^2. When required to ensure good germination and healthy plants, a fungicide treatment and/or other chemical or physical treatment was applied. The plants were grown for 10-17 d in a greenhouse with an approximate 14-h photoperiod which was maintained at about 29° C. during the day and 26° C. during the night. Nutrients and water were added on a regular basis and supplemental lighting was provided with overhead metal halide 1000-Watt lamps as necessary. The plants were employed for testing when they reached the second or third true leaf stage. A weighed amount, determined by the highest rate to be tested, of each test compound was placed in 25 mL glass vials and dissolved in a volume of 97:3 v/v acetone-DMSO to obtain 12× stock solutions. […] The concentrated stock solutions were added to the spray solutions so that the final acetone and DMSO concentrations were 16.2% and 0.5%, respectively. Spray solutions were diluted to the appropriate final concentrations with the addition of 10 mL of an aqueous mixture of 1.5% (v/v) Agri-dex crop oil concentrate. The final spray solutions contained 1.25% (v/v) Agri-dex crop oil concentrate. Compound requirements are based upon a 12 mL application volume at a rate of 187 L/ha. Formulated compounds were applied to the plant material with an overhead Mandel track sprayer equipped with […] nozzles calibrated to deliver 187 L/ha over an application area of 0.503 square meters (m^2) at a spray height of 18 inches ([…]) above average plant canopy height. Control plants were sprayed in the same manner with the solvent blank. The treated plants and control plants were placed in a greenhouse as described above and watered by sub-irrigation to prevent wash-off of the test compounds. After 20-22 days, the condition of the test plants, compared with that of the untreated plants, was determined visually and scored on a scale of 0 to 100 percent where 0 corresponds to no injury and 100 corresponds to complete kill. By applying the well-accepted probit analysis as described by J. Berkson in […], 48, 565 (1953) and by D. Finney in “Probit Analysis” Cambridge University Press (1952), the above data can be used to calculate GR20, GR50, GR80 and GR90 values, which are defined as growth reduction factors that correspond to the effective dose of herbicide required to kill or control 20 percent, 50 percent, 80 percent or 90 percent, respectively, of a target plant."}, "ORYSK: Oryza sativa": {"test_system": "ORYSK: Oryza sativa", "excerpt": "as §1"}, "[2]": {"test_system": "SEBEX: hemp sesbania, Sesbania exaltata", "excerpt": "as §1"}, "[3]": {"test_system": "CYPES: yellow nutsedge, Cyperus esculentus", "excerpt": "as §1"}, "[4]": {"test_system": "ECHCO: junglerice, Echinochloa colonum", "excerpt": "as §1"}, "[5]": {"test_system": "CYPDI: small-flower flatsedge, Cyperus difformis", "excerpt": "as §1"}, "[6]": {"test_system": "BRAPP: broadleaf signalgrass, Brachiaria platyphylla", "excerpt": "as §1"}, "[7]": {"test_system": "LEFCH: Chinese sprangletop, Leptochloa chinensis", "excerpt": "as §1"}, "[8]": {"test_system": "CYPIR: rice flatsedge, Cyperus iria", "excerpt": "as §1"}, "[9]": {"test_system": "SCPJU: Japanese bulrush, Scirpus juncoides", "excerpt": "as §1"}, "[10]": {"test_system": "DIGSA: large crabgrass, Digitaria sanguinalis", "excerpt": "as §1"}, "ORYSJ: Oryza sativa": {"test_system": "ORYSJ: Oryza sativa", "excerpt": "as §1"}, "[11]": {"conditions": "dose for 50 percent control, probit analysis"}, "[12]": {"conditions": "dose for 80 percent control, probit analysis"}, "[13]": {"conditions": "dose for 90 percent control, probit analysis"}, "[14]": {"conditions": "dose for 20 percent growth reduction, probit analysis"}}, "data": [{"smiles": "COC(=O)c1nc(-c2ccc3nsnc3c2)c(F)c(N)c1Cl", "note": "[Compound 11]", "values": [{"measurement": "Visual Growth Reduction (%) 21 Days After Application ECHCG", "setting": "[1]; 17.5 g ai/ha", "result": "E (45-59)"}, {"measurement": "Visual Growth Reduction (%) 21 Days After Application ECHCG", "setting": "[1]; 35 g ai/ha", "result": "C (75-84)"}, {"measurement": "Visual Growth Reduction (%) 21 Days After Application ECHCG", "setting": "[1]; 70 g ai/ha", "result": "B (85-94)"}, {"measurement": "GR50 ECHCG", "setting": "[1]; [11]", "result": 6, "unit": "g ai/ha"}, {"measurement": "GR80 ECHCG", "setting": "[1]; [12]", "result": 37, "unit": "g ai/ha"}, {"measurement": "GR90 ECHCG", "setting": "[1]; [13]", "result": 98, "unit": "g ai/ha"}, {"measurement": "Visual Growth Reduction (%) 21 Days After Application ORYSK", "setting": "ORYSK: Oryza sativa; 17.5 g ai/ha", "result": "G (0-29)"}, {"measurement": "Visual Growth Reduction (%) 21 Days After Application ORYSK", "setting": "ORYSK: Oryza sativa; 35 g ai/ha", "result": "G (0-29)"}, {"measurement": "Visual Growth Reduction (%) 21 Days After Application ORYSK", "setting": "ORYSK: Oryza sativa; 70 g ai/ha", "result": "G (0-29)"}, {"measurement": "GR20 ORYSK", "setting": "ORYSK: Oryza sativa; [14]", "result": ">70", "unit": "g ai/ha"}, {"measurement": "Visual Growth Reduction (%) 21 Days After Application SEBEX", "setting": "[2]; 17.5 g ai/ha", "result": "C (75-84)"}, {"measurement": "Visual Growth Reduction (%) 21 Days After Application SEBEX", "setting": "[2]; 35 g ai/ha", "result": "A (95-100)"}, {"measurement": "Visual Growth Reduction (%) 21 Days After Application SEBEX", "setting": "[2]; 70 g ai/ha", "result": "A (95-100)"}, {"measurement": "GR50 SEBEX", "setting": "[2]; [11]", "result": 4, "unit": "g ai/ha"}, {"measurement": "GR80 SEBEX", "setting": "[2]; [12]", "result": 11, "unit": "g ai/ha"}, {"measurement": "GR90 SEBEX", "setting": "[2]; [13]", "result": 19, "unit": "g ai/ha"}, {"measurement": "Visual Growth Reduction (%) 21 Days After Application CYPES", "setting": "[3]; 17.5 g ai/ha", "result": "D (60-74)"}, {"measurement": "Visual Growth Reduction (%) 21 Days After Application CYPES", "setting": "[3]; 35 g ai/ha", "result": "G (0-29)"}, {"measurement": "Visual Growth Reduction (%) 21 Days After Application CYPES", "setting": "[3]; 70 g ai/ha", "result": "E (45-59)"}, {"measurement": "GR50 CYPES", "setting": "[3]; [11]", "result": ">70", "unit": "g ai/ha"}, {"measurement": "GR80 CYPES", "setting": "[3]; [12]", "result": ">70", "unit": "g ai/ha"}, {"measurement": "GR90 CYPES", "setting": "[3]; [13]", "result": ">70", "unit": "g ai/ha"}, {"measurement": "Visual Growth Reduction (%) 21 Days After Application ECHCO", "setting": "[4]; 17.5 g ai/ha", "result": "E (45-59)"}, {"measurement": "Visual Growth Reduction (%) 21 Days After Application ECHCO", "setting": "[4]; 35 g ai/ha", "result": "D (60-74)"}, {"measurement": "Visual Growth Reduction (%) 21 Days After Application ECHCO", "setting": "[4]; 70 g ai/ha", "result": "C (75-84)"}, {"measurement": "GR50 ECHCO", "setting": "[4]; [11]", "result": 15, "unit": "g ai/ha"}, {"measurement": "GR80 ECHCO", "setting": "[4]; [12]", "result": 107, "unit": "g ai/ha"}, {"measurement": "GR90 ECHCO", "setting": "[4]; [13]", "result": 300, "unit": "g ai/ha"}, {"measurement": "Visual Growth Reduction (%) 21 Days After Application CYPDI", "setting": "[5]; 17.5 g ai/ha", "result": "A (95-100)"}, {"measurement": "Visual Growth Reduction (%) 21 Days After Application CYPDI", "setting": "[5]; 35 g ai/ha", "result": "A (95-100)"}, {"measurement": "Visual Growth Reduction (%) 21 Days After Application CYPDI", "setting": "[5]; 70 g ai/ha", "result": "A (95-100)"}, {"measurement": "GR50 CYPDI", "setting": "[5]; [11]", "result": 6, "unit": "g ai/ha"}, {"measurement": "GR80 CYPDI", "setting": "[5]; [12]", "result": 11, "unit": "g ai/ha"}, {"measurement": "GR90 CYPDI", "setting": "[5]; [13]", "result": 16, "unit": "g ai/ha"}, {"measurement": "Visual Growth Reduction (%) 21 Days After Application BRAPP", "setting": "[6]; 17.5 g ai/ha", "result": "G (0-29)"}, {"measurement": "Visual Growth Reduction (%) 21 Days After Application BRAPP", "setting": "[6]; 35 g ai/ha", "result": "G (0-29)"}, {"measurement": "Visual Growth Reduction (%) 21 Days After Application BRAPP", "setting": "[6]; 70 g ai/ha", "result": "E (45-59)"}, {"measurement": "GR50 BRAPP", "setting": "[6]; [11]", "result": ">70", "unit": "g ai/ha"}, {"measurement": "GR80 BRAPP", "setting": "[6]; [12]", "result": ">70", "unit": "g ai/ha"}, {"measurement": "GR90 BRAPP", "setting": "[6]; [13]", "result": ">70", "unit": "g ai/ha"}, {"measurement": "Visual Growth Reduction (%) 21 Days After Application LEFCH", "setting": "[7]; 17.5 g ai/ha", "result": "G (0-29)"}, {"measurement": "Visual Growth Reduction (%) 21 Days After Application LEFCH", "setting": "[7]; 35 g ai/ha", "result": "G (0-29)"}, {"measurement": "Visual Growth Reduction (%) 21 Days After Application LEFCH", "setting": "[7]; 70 g ai/ha", "result": "G (0-29)"}, {"measurement": "GR50 LEFCH", "setting": "[7]; [11]", "result": 114, "unit": "g ai/ha"}, {"measurement": "GR80 LEFCH", "setting": "[7]; [12]", "result": 186, "unit": "g ai/ha"}, {"measurement": "GR90 LEFCH", "setting": "[7]; [13]", "result": 239, "unit": "g ai/ha"}, {"measurement": "Visual Growth Reduction (%) 21 Days After Application CYPIR", "setting": "[8]; 17.5 g ai/ha", "result": "G (0-29)"}, {"measurement": "Visual Growth Reduction (%) 21 Days After Application CYPIR", "setting": "[8]; 35 g ai/ha", "result": "E (45-59)"}, {"measurement": "Visual Growth Reduction (%) 21 Days After Application CYPIR", "setting": "[8]; 70 g ai/ha", "result": "F (30-44)"}, {"measurement": "GR50 CYPIR", "setting": "[8]; [11]", "result": 78, "unit": "g ai/ha"}, {"measurement": "GR80 CYPIR", "setting": "[8]; [12]", "result": 212, "unit": "g ai/ha"}, {"measurement": "GR90 CYPIR", "setting": "[8]; [13]", "result": 357, "unit": "g ai/ha"}, {"measurement": "Visual Growth Reduction (%) 21 Days After Application SCPJU", "setting": "[9]; 17.5 g ai/ha", "result": "A (95-100)"}, {"measurement": "Visual Growth Reduction (%) 21 Days After Application SCPJU", "setting": "[9]; 35 g ai/ha", "result": "A (95-100)"}, {"measurement": "Visual Growth Reduction (%) 21 Days After Application SCPJU", "setting": "[9]; 70 g ai/ha", "result": "A (95-100)"}, {"measurement": "GR50 SCPJU", "setting": "[9]; [11]", "result": 4, "unit": "g ai/ha"}, {"measurement": "GR80 SCPJU", "setting": "[9]; [12]", "result": 9, "unit": "g ai/ha"}, {"measurement": "GR90 SCPJU", "setting": "[9]; [13]", "result": 14, "unit": "g ai/ha"}, {"measurement": "Visual Growth Reduction (%) 21 Days After Application DIGSA", "setting": "[10]; 17.5 g ai/ha", "result": "E (45-59)"}, {"measurement": "Visual Growth Reduction (%) 21 Days After Application DIGSA", "setting": "[10]; 35 g ai/ha", "result": "E (45-59)"}, {"measurement": "Visual Growth Reduction (%) 21 Days After Application DIGSA", "setting": "[10]; 70 g ai/ha", "result": "D (60-74)"}, {"measurement": "GR50 DIGSA", "setting": "[10]; [11]", "result": 11, "unit": "g ai/ha"}, {"measurement": "GR80 DIGSA", "setting": "[10]; [12]", "result": 628, "unit": "g ai/ha"}, {"measurement": "GR90 DIGSA", "setting": "[10]; [13]", "result": 5310, "unit": "g ai/ha"}, {"measurement": "Visual Growth Reduction (%) 21 Days After Application ORYSJ", "setting": "ORYSJ: Oryza sativa; 17.5 g ai/ha", "result": "G (0-29)"}, {"measurement": "Visual Growth Reduction (%) 21 Days After Application ORYSJ", "setting": "ORYSJ: Oryza sativa; 35 g ai/ha", "result": "G (0-29)"}, {"measurement": "Visual Growth Reduction (%) 21 Days After Application ORYSJ", "setting": "ORYSJ: Oryza sativa; 70 g ai/ha", "result": "G (0-29)"}, {"measurement": "GR20 ORYSJ", "setting": "ORYSJ: Oryza sativa; [14]", "result": ">70", "unit": "g ai/ha"}]}]}
